In publication PMC11134608, “UBR5 forms ligand-dependent complexes on chromatin to regulate nuclear hormone receptor stability” (Molecular cell, 2023):
Residues, ends and D or L forms follow the SMILES beside them. *: point of attachment. Cbz = O=C(OCc1ccccc1)*

What was measured:
RARA and UBR5 = experiment: BRET assay of RARA and UBR5; format: cell-based, human; settings: ± 9-cis RA, n = 3
Source text: Bioluminescence resonance energy transfer (BRET) experiments were done using the NanoBRET PPI kit (Promega, N1821) according to manufacturer’s instructions.

[1] = tested on: ATRA-induced gene expression in NB4 cells; experiment: RNA sequencing of NB4 cells; format: cell-based, human; settings: NB4, MG132 or DMSO, ATRA 0, 8, 24 h
Protocol: Cell lines were expanded, treated with ligand, and incubated at 37C. Cells were pelleted by centrifugation for 5 minutes, washed with cold PBS, and RNA was isolated by RNeasy kit (Qiagen) per manufacturer’s instructions. RNA was sent to Novogene for library preparation and sequencing, or prepared for sequencing (NEBNext, New England Biolabs) and sequenced on an Illumina NextSeq 550 sequencer.
Paired-end reads were aligned to the hg38.p13[81],[82] reference genome with the STAR[83] (v5.2.7b) aligner as part of the RSEM[99] command line tool. Gene transcript abundance was further quantified from aligned fragments using RSEM to generate a gene-by-sample matrix of expected counts. Differential expression was tested, as with the ChIP-seq data, using the DESeq[88],[93]2 and ashr[94] pipeline, this time calculating sample-specific scale factor offset using the method of median-ratio as implemented in the R package EBSeq[100] (v1.36.0). For plotting in heatmaps, genes were selected based on ChIP-seq peak annotation and subset.

UBR5-RARA = experiment: UBR5 pull-down competition with NCOA1; format: binding, human; settings: NCOA at 0.5, 5 and 10× molar excess relative to UBR5, with ATRA
Source text: Figure 2. UBR5 competes with nuclear coactivators for the conserved hydrophobic cleft of NRs (A) Schematic of RARA domain architecture; NTD, N-terminal domain; DBD, DNA-binding domain; LBD, ligand-binding domain. (B) Degradation of RARA reporters containing 4–5 surface-exposed alanine mutations per helix, relative to untreated (DMSO) (n = 3 two-sided t test). See Figure S2 for detailed amino acid substitutions. (C) Degradation of RARA reporters containing glutamate-substituted residues within the H3/H4 hydrophobic cleft. (n = 3 two-sided t test). […] FLAG-UBR5 (15 pmol) was pre-bound to a large excess of His-RARA in the presence of ATRA and excess RARA protein washed away. Increasing amounts of full-length NCOA1 protein were then added to outcompete the UBR5-RARA interaction. NCOA was titrated with a 0.5, 5, and 10× molar excess relative to UBR5. (F) Relative abundances in RARA-GFP IP-MS of NCOR1, NCOA1, and UBR5 normalized to RARA abundance following 0, 4, and 16 h of ATRA treatment.
12 μL of FLAG M2 slurry were equilibrated with binding buffer (25 mM HEPES pH 7.4, 125 mM NaCl, 0.05% TWEEN-20). The resin was pelleted and excess buffer removed. 60 μL of fresh binding buffer was re-added, followed by addition of 15 pmol (2.5 μL ofa6 μM solution) of purified FLAG-UBR5 protein and incubated on a rotating wheel at 4°C for 60–90 minutes. […]

[2] = tested on: RARA/RXRA heterodimer (pre-formed complex with fluorescein-labelled NCOA1 peptide); experiment: Fluorescence polarization, competitive reverse titration of unlabeled peptides; format: binding, human; settings: with ATRA; 10 nM tracer, 0.5 μM RARA/RXRA, competitor 0–85 μM; 20 mM HEPES pH 7.4, 110 mM NaCl; room temperature; variable slope fit; duplicates
Protocol: Fluorescein-labelled NCOA1 peptide residues […] (Flc-[…]) was used as a fluorescent tracer as described previously.[71] Increasing amounts of RARA/RXRA heterodimer (0.1–26 μM final concentration) were mixed with tracer (10 nM final concentration) in a 384-well microplate (784076, Greiner) at room temperature. The interaction was measured in a final buffer containing 20 mM HEPES pH 7.4, 110 mM NaCl, 500 μM TCEP, 1% Glycerol, 0.1% (v/v) pluronic acid with or without 100 μM all-trans-retinoic acid. A PHERAstar FS microplate reader (BMG Labtech) equipped with a fluorescence polarization filter unit was used to determine changes in fluorescence polarization. The polarization units were converted to fraction bound, defined as (mPfree – mP) / (mPfree – mPbound), as described previously.[72] […]
A. RARAreporter degradation in HEK293cells withCRISPR-editedUBR5 deficientof itsHECTdomain inthepresence or absenceof ATRA (n=3 two-sided ttest).B. Ubiquitylation assayof a pseudo-primedRARA/RXRAsubstrate, generated as His-3Ub~RARA and His-3Ub~RXRA linearfusions in E.coli.Wild type UBR5 can rapidly branch and extend Ub chains on the substrate, however indicated mutants of the UBA domain severely hinder chain extension. […] Fluorescence polarization (FP) experiment showing forward titrationof RARA/RXRA intoa fluorescein-labelled NCOA1 peptide (residues 686-698). […]

3Ub~RARA/RXRA substrate = experiment: In vitro ubiquitylation of pseudo-ubiquitylated RARA/RXRA; format: biochemical, human
Source text: Input UBR5 variants -50 RARA/RXRA (µM)[NCOA1 peptide] uM
250 NCOA1 peptide (fluorescein-labeled probe): 5-FAM-[…]
200 LxxLLs UBR5 peptides (unlabeled): […]
Unlabelled peptide (µM)UBR5 peptide (µM)
0.0 +RARA/RXRA + retinoic acid
H A-1 A-2 Name Expressed UBR5 construct […]
round kDa WT LxxA LxxA WT 1-2799 kDa Input Backg WT LxxAA-1 LxxAA-2 ∆ UBR ∆ tandem ∆ UBA 250 […]
Figure S5. Interaction ofUBR5with NRs and LxxLL motifs,Related to Figure 3
A. RARAreporter degradation in HEK293cells withCRISPR-editedUBR5 deficientof itsHECTdomain inthepresence or absenceof ATRA (n=3 two-sided ttest).B. Ubiquitylation assayof a pseudo-primedRARA/RXRAsubstrate, generated as His-3Ub~RARA and His-3Ub~RXRA linearfusions in E.coli.Wild type UBR5 can rapidly branch and extend Ub chains on the substrate, however indicated mutants of the UBA domain severely hinder chain extension. C. Fluorescence polarization (FP) experiment showing forward titrationof RARA/RXRA intoa fluorescein-labelled NCOA1 peptide (residues 686-698). […]
Fluorescence polarization experiments depicting competitive reverse titrationwith indicated peptides against a pre-formed complex of RARA/RXRA with a fluorescein-labelled peptide of NCOA1 (residues 686-698) in the presence of ATRA. Titrations were performed in duplicate and binding constants determined after converting fluorescence polarization values tofraction bound of originalcomplex. […]

CC1=C(/C=C/C(C)=C\C=C\C(C)=C\C(=O)O)C(C)(C)CCC1 [RA]
RARA/UBR5 BRET luminescence (RARA and UBR5): exhibited more luminescence than controls

CC(C)C[C@@H](C=O)NC(=O)[C@H](CC(C)C)NC(=O)[C@H](CC(C)C)NC(=O)OCc1ccccc1 [MG132] (Cbz-Leu-Leu-Leu-aldehyde)
effect of proteasomal inhibition (MG132) on ATRA-induced transcription [1]: strongly decreased ATRA-induced transcription

NCOA1: full-length NCOA1 protein
UBR5 binding to RARA in presence of excess NCOA1 (UBR5-RARA): impaired by an excess of full-length NCOA1

LQPYLRELLSAKD [UBR5 aa1098]
Kapp [2]: 41.4 ± 2.8 µM

UBR5^V196K: UBR5 with a substitution at the ubiquitin-binding interface
processivity in ubiquitylation assay (3Ub~RARA/RXRA substrate): severely hindered processivity in ubiquitylation assays

UBR5^Δ83–347: UBR5 lacking the UBA insertion entirely
processivity in ubiquitylation assay (3Ub~RARA/RXRA substrate): severely hindered processivity in ubiquitylation assays

RLDLLYRLLTATN [UBR5 aa1251]
Kapp [2]: 3.1 ± 0.1 µM
